Experimental data taken from PubChem BioAssay AID1963984 (Molecular Pharmacology Branch, DTP, NCI, 2024).

Tested on: 233499-124-R-J3-PDC spheroids with HUVEC/MSC, viability
Assay: Anticancer human tumor 233499-124-R-J3-PDC patient-derived colon adenocarcinoma cell line growth inhibition [PI3K]
Settings: for IC50: curve of first compound; for viability, T/C: stronger effect = lower value; active means viability on the fitted dose curve at most 10% of control; inactive means the rest
Method in brief: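 Multi-cell spheroids combine tumor cells with HUVEC and human MSCs, treated with targeted agents alone or with inavolisib, alpelisib, duvelisib or copanlisib. Concentrations fall in half-log steps from at or near clinical Cmax, or from 10 microM where Cmax is unknown; viability read-out.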

[1] = second compound 0.00316 µM, first compound 0.0316 µM
[2] = second compound 0.00316 µM, first compound 0.1 µM
[3] = second compound 0.00316 µM, first compound 0.316 µM
[4] = second compound 0.00316 µM, first compound 1 µM
[5] = second compound 0.00316 µM, first compound 3.16 µM
[6] = second compound 0.00316 µM, first compound 10 µM
[7] = second compound 0.01 µM, first compound 0.0316 µM
[8] = second compound 0.01 µM, first compound 0.1 µM
[9] = second compound 0.01 µM, first compound 0.316 µM
[10] = second compound 0.01 µM, first compound 1 µM
[11] = second compound 0.01 µM, first compound 3.16 µM
[12] = second compound 0.01 µM, first compound 10 µM
[13] = second compound 0.0316 µM, first compound 0.0316 µM
[14] = second compound 0.0316 µM, first compound 0.1 µM
[15] = second compound 0.0316 µM, first compound 0.316 µM
[16] = second compound 0.0316 µM, first compound 1 µM
[17] = second compound 0.0316 µM, first compound 3.16 µM
[18] = second compound 0.0316 µM, first compound 10 µM
[19] = second compound 0.1 µM, first compound 0.0316 µM
[20] = second compound 0.1 µM, first compound 0.1 µM
[21] = second compound 0.1 µM, first compound 0.316 µM
[22] = second compound 0.1 µM, first compound 1 µM
[23] = second compound 0.1 µM, first compound 3.16 µM
[24] = second compound 0.1 µM, first compound 10 µM
[25] = second compound 0.316 µM, first compound 0.0316 µM
[26] = second compound 0.316 µM, first compound 0.1 µM
[27] = second compound 0.316 µM, first compound 0.316 µM
[28] = second compound 0.316 µM, first compound 1 µM
[29] = second compound 0.316 µM, first compound 3.16 µM
[30] = second compound 0.316 µM, first compound 10 µM
[31] = second compound 1 µM, first compound 0.0316 µM
[32] = second compound 1 µM, first compound 0.1 µM
[33] = second compound 1 µM, first compound 0.316 µM
[34] = second compound 1 µM, first compound 1 µM
[35] = second compound 1 µM, first compound 3.16 µM
[36] = second compound 1 µM, first compound 10 µM
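Further: spheroids exposed to agents for seven days before readout.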
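Wherever viability, T/C is given: percent viability relative to DMSO vehicle control taken as 100%.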

C#Cc1c(F)ccc2cc(O)cc(-c3ncc4c(N5CC6CCC(C5)N6)nc(OCC56CCCN5CC(F)C6)nc4c3F)c12 (centres undefined) + COc1c(OCCCN2CCOCC2)ccc2c3n(c(=NC(=O)c4cnc(N)nc4)nc12)CCN3
< 0.0316 µM: IC50 (second compound 0.316 µM) | IC50 (second compound 1 µM)
2.23 µM: IC50 (second compound 0.1 µM)
> 10 µM: IC50 (second compound 0.00316 µM) | IC50 (second compound 0.01 µM) | IC50 (second compound 0.0316 µM)
inactive: viability, T/C [1] 85.5% | viability, T/C [2] 100% | viability, T/C [3] 82.9% | viability, T/C [4] 95.1% | viability, T/C [5] 81% | viability, T/C [6] 67.2% | viability, T/C [7] 81.5% | viability, T/C [8] 95.2% | viability, T/C [9] 86.9% | viability, T/C [10] 91.6% | viability, T/C [11] 81.2% | viability, T/C [12] 80.8% | viability, T/C [13] 93.3% | viability, T/C [14] 91.3% | viability, T/C [15] 74.8% | viability, T/C [16] 92.7% | viability, T/C [17] 71.2% | viability, T/C [18] 68.7% | viability, T/C [19] 62.6% | viability, T/C [20] 86.5% | viability, T/C [21] 71.2% | viability, T/C [22] 63.5% | viability, T/C [23] 44.3% | viability, T/C [24] 29.7% | viability, T/C [25] 24.9% | viability, T/C [26] 26% | viability, T/C [27] 27.1% | viability, T/C [28] 11.7% | viability, T/C [29] 13.3%
active: viability, T/C [30] 4.16% | viability, T/C [31] 4.26% | viability, T/C [32] 9.48% | viability, T/C [33] 8.52% | viability, T/C [34] 3.87% | viability, T/C [35] 4.18% | viability, T/C [36] 2.6%

CC(Cn1ccc(-c2ccc(C#N)c(Cl)c2)n1)NC(=O)c1cc(C(C)O)[nH]n1 (centres undefined) + COc1c(OCCCN2CCOCC2)ccc2c3n(c(=NC(=O)c4cnc(N)nc4)nc12)CCN3
< 0.0316 µM: IC50 (second compound 0.316 µM) | IC50 (second compound 1 µM)
> 10 µM: IC50 (second compound 0.00316 µM) | IC50 (second compound 0.01 µM) | IC50 (second compound 0.0316 µM)
inactive: viability, T/C [1] 92.3% | viability, T/C [2] 107% | viability, T/C [3] 102% | viability, T/C [4] 102% | viability, T/C [5] 101% | viability, T/C [6] 96.8% | viability, T/C [7] 91.7% | viability, T/C [8] 98.2% | viability, T/C [9] 73.9% | viability, T/C [10] 102% | viability, T/C [11] 98% | viability, T/C [12] 86.5% | viability, T/C [13] 86.6% | viability, T/C [14] 98.5% | viability, T/C [15] 100% | viability, T/C [16] 95.3% | viability, T/C [17] 77.1% | viability, T/C [18] 95.3% | viability, T/C [19] 83.7% | viability, T/C [20] 74.1% | viability, T/C [21] 70.4% | viability, T/C [22] 79% | viability, T/C [23] 55.1% | viability, T/C [24] 42.4% | viability, T/C [25] 30.9% | viability, T/C [26] 35.2% | viability, T/C [27] 32.5% | viability, T/C [28] 28.4% | viability, T/C [29] 23.6% | viability, T/C [30] 27% | viability, T/C [31] 14.8% | viability, T/C [32] 12.6%
5.04 µM: IC50 (second compound 0.1 µM)
active: viability, T/C [33] 7.23% | viability, T/C [34] 8.58% | viability, T/C [35] 5.75% | viability, T/C [36] 5.05%
